In paper PMC10539501 (Nature Communications, 2023):
Each block holds one molecule with its values, some of them ahead of it. Starred links: 1 amine or outer side, 2 acyl side, 3 side chain; linkers in the order of their positions; H or OH if unused. Non-standard residues stand in square brackets, D forms with d. Residues, ends and D or L forms follow the SMILES beside them. X13 = CC[C@H](C)[C@H](NC(=S)[C@@H]1CCCN1[*:1])C(=O)[*:2]; X17 = CC[C@H](C)[C@H](N[*:1])C(=S)N1CCC[C@H]1C(=O)[*:2]; AlaΨ(CSNH)Ala = C[C@H](NC(=S)[C@H](C)N[*:1])C(=O)[*:2]; X11 = CC[C@H](C)[C@H](N[*:1])C(=S)N[C@@H](C)C(=O)[*:2]; X2 = CC(C)C[C@H](NC(=S)[C@@H](CC(C)C)N[*:1])C(=O)[*:2]; X9 = O=C([C@@H]1CCCN1C(=S)[C@H](Cc1ccccc1)N[*:1])[*:2]; X14 = C[C@H](N[*:1])C(=S)N[C@@H](Cc1ccccc1)C(=O)[*:2]; X15 = CC(C)C[C@@H](NC(=S)[C@H]1CCCN1[*:1])C(=O)[*:2]; X19 = CC(C)C[C@H](NC(=S)[C@@H]1CCCN1[*:1])C(=O)[*:2]; X18 = C[C@@H](N[*:1])C(=S)N1CCC[C@H]1C(=O)[*:2]; X20 = C[C@H](NC(=S)[C@@H](C)N[*:1])C(=O)[*:2]

Assays:
physchem = conditions: pH 7.4
[1] = Octanol-water distribution coefficient (logD7.4); conditions: octanol/water, pH 7.4
[2] = format: physicochemical
[3] = PAMPA passive permeability; format: in vitro ADME;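 also: passive permeability across an artificial membrane in 96-well pre-coated PAMPA plates, which lack transporters and efflux systems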
Procedure: Encouraged by this, the passive permeability of the analogs was evaluated using an artificial membrane (PAMPA), which measures permeability of compounds in the absence of transporters and efflux systems[32].
96-well BD Corning® pre-coated PAMPA plates were used following the supplier’s protocol, details in Supplementary Information.

in vitro = in vitro ADME, human; conditions: human; for Papp A→B: Caco-2, Papp A-B avg
Procedure: (§1) The Caco-2 cell (HTB-37^TM from ATCC, procured from NCCS, Pune) monolayer was washed and pre-incubated at 37 °C and 5% CO2 for 30 min with HBSS-HEPES buffer containing 1% DMSO prior to experimentation. The assay was performed 21 days post-seeding of cells. TEER values were measured before starting and after the completion of the assay. Acceptor and donor well concentrations of the peptides and controls were assessed through LC-MS/MS.

Caco-2 cells = assay: in vitro; format: in vitro ADME, human; conditions: Caco-2
Procedure: as §1
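For Papp A-B + Elacridar avg in this document: Caco-2 monolayers used 21 days after seeding in HBSS-HEPES buffer with 1% DMSO, donor and acceptor levels quantified by LC-MS/MS, TEER checked before and after.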
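For Papp A-B avg (second block) in this document: Caco-2 monolayers used 21 days after seeding in HBSS-HEPES buffer with 1% DMSO, donor and acceptor levels quantified by LC-MS/MS, TEER checked before and after.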
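For Papp A-B set 1 (second block) in this document: Caco-2 monolayers used 21 days after seeding in HBSS-HEPES buffer with 1% DMSO, donor and acceptor levels quantified by LC-MS/MS, TEER checked before and after.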
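For Papp A-B set 2 (second block) in this document: Caco-2 monolayers used 21 days after seeding in HBSS-HEPES buffer with 1% DMSO, donor and acceptor levels quantified by LC-MS/MS, TEER checked before and after.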

SMILES: NCCCC[C@H](NC(=S)[C@@H](N)Cc1ccccc1)C(=O)O [1a]
- logD (physchem): -2.12

SMILES: CN(C(=O)[C@@H](N)Cc1ccccc1)[C@@H](CCCCN)C(=O)O [1b]
- logD (physchem): -1.95

SMILES: N[C@@H](Cc1ccccc1)C(=S)N[C@@H](CCC(=O)O)C(=O)O [2a]
- logD (physchem): -1.45

SMILES: CN(C(=O)[C@@H](N)Cc1ccccc1)[C@@H](CCC(=O)O)C(=O)O [2b]
- logD (physchem): -2.14

SMILES: N[C@@H](Cc1ccccc1)C(=S)NCC(=O)O [3a]
- logD (physchem): -1.61

SMILES: CN(CC(=O)O)C(=O)[C@@H](N)Cc1ccccc1 [3b]
- logD (physchem): -1.73

SMILES: C[C@H]1O[C@@H](O[C@H]2[C@@H](O)C[C@H](O[C@H]3[C@@H](O)C[C@H](O[C@H]4CC[C@@]5(C)[C@H](CC[C@@H]6[C@@H]5C[C@@H](O)[C@]5(C)[C@@H](C7=CC(=O)OC7)CC[C@]65O)C4)O[C@@H]3C)O[C@@H]2C)C[C@H](O)[C@@H]1O [Digoxin, reference compound]
- Papp A→B (in vitro): 0.721 ×10⁻⁶ cm/s
- Papp B→A (in vitro; Caco-2, Papp B-A avg): 29.5 ×10⁻⁶ cm/s
- Papp A-B + Elacridar avg (Caco-2 cells): 1.5 ×10⁻⁶ cm/s
- Papp A-B avg (second block) (Caco-2 cells): 0.72 ×10⁻⁶ cm/s
- Papp A-B set 1 (second block) (Caco-2 cells): 0.79 ×10⁻⁶ cm/s
- Papp A-B set 2 (second block) (Caco-2 cells): 0.65 ×10⁻⁶ cm/s
- Papp B-A + Elacridar avg (Caco-2 cells): 6.2 ×10⁻⁶ cm/s
- Papp B-A avg (second block) (Caco-2 cells): 29.5 ×10⁻⁶ cm/s
- Papp B-A set 1 (second block) (Caco-2 cells): 28.5 ×10⁻⁶ cm/s
- Papp B-A set 2 (second block) (Caco-2 cells): 30.4 ×10⁻⁶ cm/s

SMILES: CC(C)NCC(O)COc1cccc2ccccc12 (centres unmarked) [Propranolol, reference compound]
- Papp A→B (in vitro): 16.6 ×10⁻⁶ cm/s
- Papp A-B avg (second block) (Caco-2 cells): 16.6 ×10⁻⁶ cm/s
- Papp A-B set 1 (second block) (Caco-2 cells): 17.28 ×10⁻⁶ cm/s
- Papp A-B set 2 (second block) (Caco-2 cells): 15.87 ×10⁻⁶ cm/s
- Papp B-A avg (second block) (Caco-2 cells): 34.1 ×10⁻⁶ cm/s
- Papp B-A set 1 (second block) (Caco-2 cells): 37.6 ×10⁻⁶ cm/s
- Papp B-A set 2 (second block) (Caco-2 cells): 30.7 ×10⁻⁶ cm/s

SMILES: NCCCC[C@H](NC(=O)[C@@H](N)Cc1ccccc1)C(=O)O [compound 1]
- logD (physchem): -2.88

SMILES: N[C@@H](Cc1ccccc1)C(=O)N[C@@H](CCC(=O)O)C(=O)O [compound 2] (H-Phe-Glu-OH)
- logD (physchem): -2.56

SMILES: N[C@@H](Cc1ccccc1)C(=O)NCC(=O)O [compound 3] (H-Phe-Gly-OH)
- logD (physchem): -2.22

SMILES: CC(C)[C@H](NC(=O)[C@@H](N)Cc1ccccc1)C(=O)O [compound 5] (H-Phe-Val-OH)
- logD (physchem): -1.28

SMILES: CSCC[C@H](NC(=O)[C@@H](N)Cc1ccccc1)C(=O)O [compound 6] (H-Phe-Met-OH)
- logD (physchem): -1.41

SMILES: N[C@@H](Cc1ccccc1)C(=O)N[C@@H](Cc1c[nH]c2ccccc12)C(=O)O [compound 7] (H-Phe-Trp-OH)
- logD (physchem): -0.65

Second part, the molecule after the results:

- logD (physchem): -1.76
SMILES: C[C@H](NC(=S)[C@@H](N)Cc1ccccc1)C(=O)O [4a]

- logD (physchem): -1.76
SMILES: C[C@@H](C(=O)O)N(C)C(=O)[C@@H](N)Cc1ccccc1 [4b]

- logD (physchem): -0.92
SMILES: CC(C)[C@H](NC(=S)[C@@H](N)Cc1ccccc1)C(=O)O [5a]

- logD (physchem): -0.62
SMILES: CC(C)[C@@H](C(=O)O)N(C)C(=O)[C@@H](N)Cc1ccccc1 [5b]

- logD (physchem): -0.79
SMILES: CSCC[C@H](NC(=S)[C@@H](N)Cc1ccccc1)C(=O)O [6a]

- logD (physchem): -1.05
SMILES: CSCC[C@@H](C(=O)O)N(C)C(=O)[C@@H](N)Cc1ccccc1 [6b]

- logD (physchem): 0.13
SMILES: N[C@@H](Cc1ccccc1)C(=S)N[C@@H](Cc1c[nH]c2ccccc12)C(=O)O [7a]

- logD (physchem): 0.21
SMILES: CN(C(=O)[C@@H](N)Cc1ccccc1)[C@@H](Cc1c[nH]c2ccccc12)C(=O)O [7b]

- logD [1]: -0.32
SMILES: C[C@@H]1NC(=O)[C@H](C)NC(=O)[C@H](C)NC(=S)[C@@H](C)NC(=O)[C@H](C)NC1=O [8a]

- logD [1]: -0.14
SMILES: C[C@@H]1NC(=O)[C@H](C)NC(=S)[C@H](C)NC(=O)[C@@H](C)NC(=O)[C@H](C)NC1=O [8b]

- logD [1]: -0.19
SMILES: C[C@@H]1NC(=O)[C@H](C)NC(=S)[C@H](C)NC(=O)[C@H](C)NC(=O)[C@@H](C)NC1=O [8c]

- logD [1]: -0.23
SMILES: C[C@@H]1NC(=O)[C@H](C)NC(=O)[C@@H](C)NC(=O)[C@H](C)NC(=S)[C@H](C)NC1=O [8d]

- logD [1]: -0.14
SMILES: C[C@@H]1NC(=O)[C@H](C)NC(=O)[C@@H](C)NC(=S)[C@H](C)NC(=O)[C@H](C)NC1=O [8e]

- logD [1]: -0.67
SMILES: C[C@@H]1NC(=O)[C@H](C)NC(=O)[C@H](C)NC(=S)[C@@H](C)NC(=O)[C@H](C)NC(=O)[C@H](C)NC1=O [9a] (cyclo([X20]AAAA))

- logD [1]: -0.7
SMILES: C[C@@H]1NC(=O)[C@H](C)NC(=O)[C@H](C)NC(=S)[C@H](C)NC(=O)[C@@H](C)NC(=O)[C@H](C)NC1=O [9b]

- logD [1]: -0.59
SMILES: C[C@@H]1NC(=O)[C@H](C)NC(=S)[C@H](C)NC(=O)[C@H](C)NC(=O)[C@@H](C)NC(=O)[C@H](C)NC1=O [9c]

- logD [1]: -0.67
SMILES: C[C@@H]1NC(=O)[C@H](C)NC(=O)[C@@H](C)NC(=O)[C@H](C)NC(=O)[C@H](C)NC(=S)[C@H](C)NC1=O [9d]

- % solubility [2]: 74%
- Pe Avg [3]: 4.6 ×10⁻⁶ cm/s
- Papp ([3]; Pe (PAMPA vs logD7.4)): 4.67 ×10⁻⁶ cm/s
- logD (physchem): 0.55
SMILES: CC[C@H](C)[C@@H]1NC(=O)[C@@H]2CCCN2C(=O)[C@H](Cc2ccccc2)NC(=O)[C@H](C)NC(=O)[C@H](C)NC(=S)[C@H]([C@@H](C)CC)NC(=O)[C@@H]2CCCN2C1=O [11a] (cyclo(AFPIP[X11]))

- % solubility [2]: 93%
- Papp ([3]; Pe (PAMPA vs logD7.4)): 0.42 ×10⁻⁶ cm/s
- Papp ([3]; Pe Avg): 0.4 ×10⁻⁶ cm/s
- logD (physchem): 0.28
SMILES: CC[C@H](C)[C@@H]1NC(=O)[C@@H]2CCCN2C(=O)[C@H]([C@@H](C)CC)NC(=O)[C@@H]2CCCN2C(=O)[C@H](Cc2ccccc2)NC(=O)[C@H](C)NC(=S)[C@H](C)NC1=O [11b] (cyclo(FPIPI[AlaΨ(CSNH)Ala]))

- % solubility [2]: 76%
- Papp ([3]; Pe Avg): 1 ×10⁻⁶ cm/s
- logD (physchem): 0.43
SMILES: CC[C@H](C)[C@@H]1NC(=O)[C@@H]2CCCN2C(=O)[C@H]([C@@H](C)CC)NC(=O)[C@@H]2CCCN2C(=O)[C@H](Cc2ccccc2)NC(=S)[C@H](C)NC(=O)[C@H](C)NC1=O [11c] (cyclo(A[X14]PIPI))

- % solubility [2]: 85%
- Papp ([3]; Pe Avg): 0.4 ×10⁻⁶ cm/s
- logD (physchem): 0.33
SMILES: CC[C@H](C)[C@@H]1NC(=O)[C@@H]2CCCN2C(=O)[C@H]([C@@H](C)CC)NC(=O)[C@@H]2CCCN2C(=S)[C@H](Cc2ccccc2)NC(=O)[C@H](C)NC(=O)[C@H](C)NC1=O [11d] (cyclo(AA[X9]IPI))

- % solubility [2]: 65%
- Papp ([3]; Pe (PAMPA vs logD7.4)): 0.83 ×10⁻⁶ cm/s
- Papp ([3]; Pe Avg): 0.8 ×10⁻⁶ cm/s
- logD (physchem): 0.58
SMILES: CC[C@H](C)[C@@H]1NC(=O)[C@@H]2CCCN2C(=O)[C@H]([C@@H](C)CC)NC(=S)[C@@H]2CCCN2C(=O)[C@H](Cc2ccccc2)NC(=O)[C@H](C)NC(=O)[C@H](C)NC1=O [11e] (cyclo(AAF[X13]PI))

- % solubility [2]: 76%
- Papp ([3]; Pe Avg): 1.1 ×10⁻⁶ cm/s
- logD (physchem): 0.37
SMILES: CC[C@H](C)[C@@H]1NC(=O)[C@@H]2CCCN2C(=S)[C@H]([C@@H](C)CC)NC(=O)[C@@H]2CCCN2C(=O)[C@H](Cc2ccccc2)NC(=O)[C@H](C)NC(=O)[C@H](C)NC1=O [11f] (cyclo(AAFP[X17]I))

- % solubility [2]: 93%
- Papp ([3]; Pe (PAMPA vs logD7.4)): 0.35 ×10⁻⁶ cm/s
- Papp ([3]; Pe Avg): 0.3 ×10⁻⁶ cm/s
- logD (physchem): 0.29
SMILES: CC[C@H](C)[C@@H]1NC(=S)[C@@H]2CCCN2C(=O)[C@H]([C@@H](C)CC)NC(=O)[C@@H]2CCCN2C(=O)[C@H](Cc2ccccc2)NC(=O)[C@H](C)NC(=O)[C@H](C)NC1=O [11g] (cyclo(AAFPI[X13]))

- % solubility [2]: 69%
- Papp ([3]; Pe Avg): 4.4 ×10⁻⁶ cm/s
- logD (physchem): 1.34
SMILES: CC(C)C[C@@H]1NC(=O)[C@@H](CC(C)C)NC(=O)[C@H]2CCCN2C(=O)[C@H](CC(C)C)NC(=S)[C@@H](CC(C)C)NC(=O)[C@H](CC(C)C)NC(=O)[C@@H]2CCCN2C(=O)[C@@H](C)NC1=O [12a] (cyclo(L[dA]PL[X2][dP][dL]))

- % solubility [2]: 15%
- Papp ([3]; Pe Avg): 1.4 ×10⁻⁶ cm/s
- logD (physchem): 2.3
SMILES: CC(C)C[C@@H]1NC(=O)[C@@H](CC(C)C)NC(=S)[C@H]2CCCN2C(=O)[C@H](CC(C)C)NC(=O)[C@@H](CC(C)C)NC(=O)[C@H](CC(C)C)NC(=O)[C@@H]2CCCN2C(=O)[C@@H](C)NC1=O [12c] (cyclo(L[dA]PL[dL]L[X15]))

- % solubility [2]: 25%
- Papp ([3]; Pe Avg): 8.9 ×10⁻⁶ cm/s
- logD (physchem): 1.82
SMILES: CC(C)C[C@@H]1NC(=O)[C@@H]2CCCN2C(=O)[C@@H](C)NC(=O)[C@H](CC(C)C)NC(=S)[C@@H](CC(C)C)NC(=O)[C@H]2CCCN2C(=O)[C@H](CC(C)C)NC(=O)[C@@H](CC(C)C)NC1=O [12d] (cyclo(L[dL]L[dP][X2][dA]P))

- % solubility [2]: 30%
- Papp ([3]; Pe Avg): 6.4 ×10⁻⁶ cm/s
- logD (physchem): 1.58
SMILES: CC(C)C[C@@H]1NC(=O)[C@@H](CC(C)C)NC(=O)[C@H]2CCCN2C(=O)[C@H](CC(C)C)NC(=O)[C@@H](CC(C)C)NC(=O)[C@H](CC(C)C)NC(=O)[C@@H]2CCCN2C(=S)[C@@H](C)NC1=O [12f] (cyclo(L[dL]L[dP][dL]L[X18]))

- % solubility [2]: 46%
- Papp ([3]; Pe Avg): 10.2 ×10⁻⁶ cm/s
- logD (physchem): 1.59
SMILES: CC(C)C[C@@H]1NC(=O)[C@@H](CC(C)C)NC(=O)[C@H]2CCCN2C(=O)[C@H](CC(C)C)NC(=O)[C@@H](CC(C)C)NC(=O)[C@H](CC(C)C)NC(=S)[C@@H]2CCCN2C(=O)[C@@H](C)NC1=O [12g] (cyclo(L[dA][X19][dL]L[dP][dL]))
